Tests used:
[1] = Oral absorbability: blood level of Compound X after oral administration to rabbits; type: in vivo; conditions: male New Zealand white rabbits (n=3), 0.5% methylcellulose suspension, 10 mg/kg in terms of Compound X, blood level of Compound X measured
Method: [Method] Male New Zealand white rabbits (n=3) were forced to take Compound A, B or X orally (0.5% suspension in methylcellulose, the dose was 10 mg/kg in terms of Compound X). A blood level of Compound X was measured with time to determine the maximum blood level (Cmax) and time required for reaching the maximum blood level (Tmax). Compound X:(2E)-3-{3-[7-chloro-3-(2-{[4-fluoro-2-(trifluoromethyl)phenyl]amino}-2-oxoethyl)-6-methyl-2-oxo-2H-chromen-4yl]phenyl}acrylic acid described in International Publication WO02/06264.

[2] = biological target: T1, mouse abdominal macrophage microsome ACAT (Mus musculus, UniProt Q61263); assay: ACAT inhibitory activity (3H-oleyl-CoA, cholesteryl ester formation); type: biochemical; conditions: microsome from thioglycolate-stimulated C57BL6J mouse macrophage; pre-incubated 37° C. 10 minutes, reaction 37° C. 20 minutes; read-out: IC50 (ACAT inhibiting rate 50%)
T1 construct: then ultracentrifuged (4° C., 50,000 rpm, 90 minutes) to prepare a microsome; from tissue; host or cells: abdominal (peritoneal) macrophages of thioglycolate-stimulated C57BL6J mice, cultured 24 h with rabbit beta-VLDL; microsomal fraction
T1 sequence (Q61263 1-540): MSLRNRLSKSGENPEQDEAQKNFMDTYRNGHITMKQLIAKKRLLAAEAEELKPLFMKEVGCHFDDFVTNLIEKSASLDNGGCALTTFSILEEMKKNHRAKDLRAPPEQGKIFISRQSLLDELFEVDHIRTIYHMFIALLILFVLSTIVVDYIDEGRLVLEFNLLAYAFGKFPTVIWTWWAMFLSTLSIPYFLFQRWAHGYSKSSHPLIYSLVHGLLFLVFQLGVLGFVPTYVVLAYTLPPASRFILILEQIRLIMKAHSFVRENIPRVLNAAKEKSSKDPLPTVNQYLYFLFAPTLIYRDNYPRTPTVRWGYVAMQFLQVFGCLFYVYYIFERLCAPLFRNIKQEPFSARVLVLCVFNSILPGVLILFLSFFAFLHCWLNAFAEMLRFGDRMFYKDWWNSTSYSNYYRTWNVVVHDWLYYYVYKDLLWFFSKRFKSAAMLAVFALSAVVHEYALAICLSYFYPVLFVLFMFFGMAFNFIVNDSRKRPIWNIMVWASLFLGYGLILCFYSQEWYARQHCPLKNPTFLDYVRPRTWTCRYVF
Method: According to the method of Hakamada et al. (Experimental Medicine Supplement vol. 14, No. 12, Circulation Research Protocol, p, 49-52, 1996), an abdominal macrophage was taken from a thioglycolate-stimulated C57BL6J mouse and cultured for 24 hours in a RPMI 1640-25 mM HEPES (pH7.0) medium containing rabbit β-very low density lipoprotein (β-VLDL, 150 μg cholesterol/ml) which had been prepared by the method of Ishii et al. (Ishii I et al., Arterioscler, Thromb., 12, 1139-1145, 1992). The abdominal macrophage was then collected by centrifugation (4° C., 1.000 rpm, 5 minutes) and sonicated. The sonicated liquid was centrifuged (4° C., 5000 rpm, 15 minutes) and then ultracentrifuged (4° C., 50,000 rpm, 90 minutes) to prepare a microsome. The microsome thus obtained was used for measuring ACAT inhibitory activity of a test compound as mouse abdominal macrophage microsome ACAT.
A mixture of a test compound, cholesterol-albumin-containing-Tris-HCL buffer (pH 7.5) and mouse abdominal macrophage microsome ACAT was pre-incubated at 37° C. for 10 minutes, and ^3H-oleyl-CoA was added to react at 37° C. for 20 minutes. […] The extract was subjected to silica gel thin chromatography (petroleum ether:diethyl ether:acetic acid=9:1:0.1 v/v), and the resulting ^3H-CE fraction was measured with a scintillation counter. […]

For “monocalcium bis((2E)-3-[3-[7-chloro-3-(2-[[4-fluoro-2-(trifluoromethyl)phenyl]amino]-2-oxoethyl)-6-methyl-2-oxo-2H-chromen-4-yl]phenyl]acrylate) trihydrate [Compound A]”, the “Cmax (maximum blood level of Compound X)” value [1] was 132 ± 29 ng/mL, the “Tmax (time required for reaching the maximum blood level)” value [1] was 40.2 ± 17.4 min and the IC50 [2] was 1960 nM.

— US7541478B2, “Coumarin derivative and use thereof” (Takeda Pharmaceutical Company Limited, priority 2004, dated 2009)
